Read-outs that look alike come from different tables or passages of the source. Bounds are passed on as bounds.

The target in one experiment is T1, rat CB2 receptor (rCB2) (Rattus norvegicus, UniProt Q9QZN9).
T1 sequence (Q9QZN9 1-360): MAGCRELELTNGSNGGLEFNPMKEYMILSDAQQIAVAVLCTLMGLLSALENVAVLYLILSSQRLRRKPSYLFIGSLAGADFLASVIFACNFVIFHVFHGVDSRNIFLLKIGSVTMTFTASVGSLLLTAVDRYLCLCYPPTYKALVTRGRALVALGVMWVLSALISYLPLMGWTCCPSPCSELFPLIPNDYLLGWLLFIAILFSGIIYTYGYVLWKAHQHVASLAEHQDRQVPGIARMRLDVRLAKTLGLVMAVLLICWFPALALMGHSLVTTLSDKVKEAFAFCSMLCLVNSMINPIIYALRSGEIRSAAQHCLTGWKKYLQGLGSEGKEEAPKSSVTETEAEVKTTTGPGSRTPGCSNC
Briefly: cell-based. Format: cell-based. The following applies: for +/− RCB2: agonist or inverse agonist at rCB2. Put shortly:
(§1)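 Agonism or inverse agonism was assessed as change in intracellular cAMP in CHO-K1 cells expressing human CB1 or rat CB2 (genomic DNA, pcDNA3.1).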

Experiment [1] deals with human CB1 receptor (hCB1) (Homo sapiens, UniProt P21554). Briefly: cell-based. It counts as cell-based. Put shortly:
as §1

The mark [2] stands for this setting: groups >100 nM-10 μM and >10 μM, cAMP, CHO-K1 hCB1, read-out: EC50 HCB1.

Chain of human CB1 receptor (hCB1) (P21554 whole entry): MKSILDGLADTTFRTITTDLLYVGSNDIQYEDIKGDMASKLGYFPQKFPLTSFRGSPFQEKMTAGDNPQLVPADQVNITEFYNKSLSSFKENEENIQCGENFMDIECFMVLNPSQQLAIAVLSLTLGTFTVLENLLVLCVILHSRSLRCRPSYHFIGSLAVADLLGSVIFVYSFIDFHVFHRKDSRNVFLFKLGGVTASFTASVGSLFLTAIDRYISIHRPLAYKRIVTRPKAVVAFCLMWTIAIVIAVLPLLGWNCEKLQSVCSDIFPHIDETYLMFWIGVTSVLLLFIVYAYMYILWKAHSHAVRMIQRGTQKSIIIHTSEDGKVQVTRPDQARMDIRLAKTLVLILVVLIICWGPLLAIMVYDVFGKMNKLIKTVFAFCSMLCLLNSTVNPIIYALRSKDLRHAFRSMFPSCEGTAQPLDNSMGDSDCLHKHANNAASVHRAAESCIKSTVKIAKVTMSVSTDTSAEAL

Usually EC50 stands for the concentration needed to bring the measured effect to its halfway point. As for `CCN1CCCn2c(-c3ccccc3)nc(C(=O)N[C@H](c3nc(C)no3)C(C)(C)C)c2C1` [Compound 524, (S)-N-(2,2-dimethyl-1-(3-methyl-1,2,4-oxadiazol-5-yl)propyl)-8-ethyl-3-phenyl-6,7,8,9-tetrahydro-5H-imidazo[1,5-a][1,4]diazepine-1-carboxamide], the “+/− RCB2” value at rat CB2 receptor (rCB2) is given as “−”. This molecule showed an EC50 in experiment [1] of over 10000 nM.

In the case of `CN1CCn2c(-c3ccc(Cl)cc3F)nc(C(=O)N3CCN(C(=O)c4ccccc4)CC3)c2C1` [Compound 210, (4-benzoylpiperazin-1-yl)(3-(4-chloro-2-fluorophenyl)-7-methyl-5,6,7,8-tetrahydroimidazo[1,5-a]pyrazin-1-yl)methanone], the EC50 on rat CB2 receptor (rCB2) (groups >100 nM-10 μM and >10 μM, cAMP, CHO-K1 rCB2, read-out: EC50 RCB2) is over 10000 nM; in experiment [1] (setting [2]) it was over 10000 nM.

For the molecule `CNC(=O)[C@@H](NC(=O)c1nc(-c2c(F)cccc2OC)n2c1CN(C)CCC2)C(C)(C)C` [Compound 365, N-((S)-3,3-dimethyl-1-(methylamino)-1-oxobutan-2-yl)-3-(2-fluoro-6-methoxyphenyl)-8-methyl-6,7,8,9-tetrahydro-5H-imidazo[1,5-a][1,4]diazepine-1-carboxamide], the “+/− RCB2” value on rat CB2 receptor (rCB2) was “+”. The molecule further yielded an EC50 in experiment [1] of over 10000 nM.

As to `CNC(=O)[C@@H](NC(=O)c1nc(/C=C/CN2CCCC2)n2c1CN(C)CC2)C(C)(C)C` [Compound 288, (S,E)-N-(3,3-dimethyl-1-(methylamino)-1-oxobutan-2-yl)-7-methyl-3-(3-(pyrrolidin-1-yl)prop-1-enyl)-5,6,7,8-tetrahydroimidazo[1,5-a]pyrazine-1-carboxamide], the “+/− RCB2” value on rat CB2 receptor (rCB2) is listed as “−”. In experiment [1], this molecule registered an EC50 of over 10000 nM.

On to `CC(=O)N1CCn2c(-c3ccccc3)nc(C(=O)NC3CCCCC3)c2C1` [Compound 177, 7-acetyl-N-cyclohexyl-3-phenyl-5,6,7,8-tetrahydroimidazo[1,5-a]pyrazine-1-carboxamide], for which, on rat CB2 receptor (rCB2), the “+/− RCB2” value is “−”. Also, the EC50 in experiment [1] was over 10000 nM.

As for `CNC(=O)[C@@H](NC(=O)c1nc(-c2cc(Cl)ccc2F)n2c1CN(C)CCC2)C(C)(C)C` [Compound 361, (S)-3-(5-chloro-2-fluorophenyl)-N-(3,3-dimethyl-1-(methylamino)-1-oxobutan-2-yl)-8-methyl-6,7,8,9-tetrahydro-5H-imidazo[1,5-a][1,4]diazepine-1-carboxamide], the “+/− RCB2” value on rat CB2 receptor (rCB2) is on record as “+”. For the same molecule, the “+/− HCB1” value in experiment [1] (agonist or inverse agonist at hCB1) was “+”.

For the molecule `CCS(=O)(=O)N1CCn2c(-c3ccccc3)nc(C(=O)Nc3ccccc3)c2C1` [Compound 114, 7-(ethylsulfonyl)-N,3-diphenyl-5,6,7,8-tetrahydroimidazo[1,5-a]pyrazine-1-carboxamide], the “+/− RCB2” value on rat CB2 receptor (rCB2) was “−”. In addition, the EC50 in experiment [1] (setting [2]) is over 10000 nM.

Regarding `CNC(=O)[C@@H](NC(=O)c1nc(-c2ccccc2C(C)C)n2c1CN(C)CCC2)C(C)(C)C` [Compound 403, (S)-N-(3,3-dimethyl-1-(methylamino)-1-oxobutan-2-yl)-3-(2-isopropylphenyl)-8-methyl-6,7,8,9-tetrahydro-5H-imidazo[1,5-a][1,4]diazepine-1-carboxamide], the “+/− RCB2” value on rat CB2 receptor (rCB2) was “+”. The same molecule gave an EC50 in experiment [1] of over 10000 nM.

Turning to `CNC(=O)[C@@H](NC(=O)c1nc(-c2ccccc2)n2c1CN(C(=O)OC(C)(C)C)CCC2)C(C)(C)C` [Compound 312, (S)-tert-butyl 1-(3,3-dimethyl-1-(methylamino)-1-oxobutan-2-ylcarbamoyl)-3-phenyl-6,7-dihydro-5H-imidazo[1,5-a][1,4]diazepine-8(9H)-carboxylate], the “+/− RCB2” value at rat CB2 receptor (rCB2) is on record as “−”. This molecule registered an EC50 in experiment [1] of over 10000 nM.

Regarding `CNC(=O)[C@@H](NC(=O)c1nc(C(=O)Nc2ccccc2)n2c1CN(C)CC2)C(C)(C)C` [Compound 290, (S)-N1-(3,3-dimethyl-1-(methylamino)-1-oxobutan-2-yl)-7-methyl-N3-phenyl-5,6,7,8-tetrahydroimidazo[1,5-a]pyrazine-1,3-dicarboxamide], the “+/− RCB2” value at rat CB2 receptor (rCB2) was “−”. This molecule also came in with an EC50 in experiment [1] of over 10000 nM.

These data come from patent publication US7517874B2 (priority 2007, dated 2009).
